Patent US20120316199A1, “COMPOSITIONS AND METHODS FOR TREATING, CONTROLLING, REDUCING, OR AMELIORATING INFLAMMATORY PAIN” (priority 2011, published 2012)

Test system: intraocular pressure (IOP)
Experiment: Intraocular pressure in New Zealand White rabbits, topical dosing four times daily
Assay type: in vivo
Conditions: for Intraocular Pressure, MEAN: A.M. readings
Description: On Days 1-31, animals received daily topical doses of the appropriate test article into the right eye. Animals were dosed four times per day, with doses administered 2 hours apart. Doses were administered using a calibrated 50-μL pipette. The eyelids were held close for 10 seconds immediately following dosing. The time of each dose administration was recorded.
Intraocular pressure (“IOP”) was determined for both eyes of each animal on Days 3, 5, 10, 12, 16, 18, 22, 24, 26, 30, and 32. IOP was evaluated with a Medtronic Solan, Model 30 classic pneumatonometer. Proparacaine hydrochloride 0.5% (1 drop) was delivered to each eye prior to IOP measurement. IOP was measured on Monday. Wednesday, and Friday of each week. A two-point diurnal curve was established: IOP was recorded at 8 a.m. and 12 p.m. on Day 3, and at 8 a.m. and 2 p.m. on later days, with a ±1 hour range for each of these times. The time of the measurements was recorded.
Descriptive statistics were prepared for IOP data of each treatment group (left and right eyes separately) at each measurement interval. The statistics included the number of observations (“N”) mean, standard deviation (“STD”), and standard error (“SEM”). Statistical analyses were conducted on IOP results using Statistical Analysis Systems (SAS Institute. Inc., Cary, N.C. V8.0). Parameters were evaluated using analysis of variance/GLM Procedure followed by Tukey's Standardized Range Test (Tukey, 1985) for post hoc comparisons of group means. The level of significance was set at a probability of p<0.05 for all statistical procedures. Group IOP means were compared at each interval, with left and right eyes compared separately.

## Cc1ccc2c(NC[C@](O)(CC(C)(C)c3cc(F)cc4c3OCC4)C(F)(F)F)cccc2n1 [BOL-303242-X, mapracorat]
BOL-303242-X groups B-D (10, 5, 1 mg/g), p<0.05
  Differences in mean IOP versus BSS group: No statistically significant (p<0.05) differences
BOL-303242-X suspensions 0.05, 0.25, 0.5 mg/dose, four times daily up to 31 days
  Effect of daily dosing on IOP compared to daily dosing with dexamethasone: did not increase IOP
Left and right eyes, dexamethasone 0.1% (Group A), BOL-303242-X 10, 5, 1 mg/g (Groups B-D), four times daily
  Course of mean IOP after treatment began: not seen
Treated right eyes, Day 3, 1 mg/g (Group D)
  Intraocular Pressure, MEAN: 23.0 mmHg
Treated right eyes, Day 3, 5 mg/g (Group C)
  Intraocular Pressure, MEAN: 23.7 mmHg
Treated right eyes, Day 3, 10 mg/g (Group B)
  Intraocular Pressure, MEAN: 22.7 mmHg
Treated right eyes, Day 5, 1 mg/g (Group D)
  Intraocular Pressure, MEAN: 24.7 mmHg
Treated right eyes, Day 5, 5 mg/g (Group C)
  Intraocular Pressure, MEAN: 24.7 mmHg
Treated right eyes, Day 5, 10 mg/g (Group B)
  Intraocular Pressure, MEAN: 23.8 mmHg
Treated right eyes, Day 10, 1 mg/g (Group D)
  Intraocular Pressure, MEAN: 24.8 mmHg
Treated right eyes, Day 10, 5 mg/g (Group C)
  Intraocular Pressure, MEAN: 25.2 mmHg
Treated right eyes, Day 10, 10 mg/g (Group B)
  Intraocular Pressure, MEAN: 24.5 mmHg
Treated right eyes, Day 12, 1 mg/g (Group D)
  Intraocular Pressure, MEAN: 23.4 mmHg
Treated right eyes, Day 12, 5 mg/g (Group C)
  Intraocular Pressure, MEAN: 25.0 mmHg
Treated right eyes, Day 12, 10 mg/g (Group B)
  Intraocular Pressure, MEAN: 23.9 mmHg
Treated right eyes, Day 16, 1 mg/g (Group D)
  Intraocular Pressure, MEAN: 22.1 mmHg
Treated right eyes, Day 16, 5 mg/g (Group C)
  Intraocular Pressure, MEAN: 24.3 mmHg
Treated right eyes, Day 16, 10 mg/g (Group B)
  Intraocular Pressure, MEAN: 23.4 mmHg
Treated right eyes, Day 18, 1 mg/g (Group D)
  Intraocular Pressure, MEAN: 23.7 mmHg
Treated right eyes, Day 18, 5 mg/g (Group C)
  Intraocular Pressure, MEAN: 23.9 mmHg
Treated right eyes, Day 18, 10 mg/g (Group B)
  Intraocular Pressure, MEAN: 22.3 mmHg
Treated right eyes, Day 22, 1 mg/g (Group D)
  Intraocular Pressure, MEAN: 23.2 mmHg
Treated right eyes, Day 22, 5 mg/g (Group C)
  Intraocular Pressure, MEAN: 22.4 mmHg
Treated right eyes, Day 22, 10 mg/g (Group B)
  Intraocular Pressure, MEAN: 22.4 mmHg
Treated right eyes, Day 24, 1 mg/g (Group D)
  Intraocular Pressure, MEAN: 22.1 mmHg
Treated right eyes, Day 24, 5 mg/g (Group C)
  Intraocular Pressure, MEAN: 23.8 mmHg
Treated right eyes, Day 24, 10 mg/g (Group B)
  Intraocular Pressure, MEAN: 21.2 mmHg
Treated right eyes, Day 26, 1 mg/g (Group D)
  Intraocular Pressure, MEAN: 23.1 mmHg
Treated right eyes, Day 26, 5 mg/g (Group C)
  Intraocular Pressure, MEAN: 22.1 mmHg
Treated right eyes, Day 26, 10 mg/g (Group B)
  Intraocular Pressure, MEAN: 21.8 mmHg
Treated right eyes, Day 30, 1 mg/g (Group D)
  Intraocular Pressure, MEAN: 24.2 mmHg
Treated right eyes, Day 30, 5 mg/g (Group C)
  Intraocular Pressure, MEAN: 22.9 mmHg
Treated right eyes, Day 30, 10 mg/g (Group B)
  Intraocular Pressure, MEAN: 22.7 mmHg
Treated right eyes, Day 32, 1 mg/g (Group D)
  Intraocular Pressure, MEAN: 24.9 mmHg
Treated right eyes, Day 32, 5 mg/g (Group C)
  Intraocular Pressure, MEAN: 23.4 mmHg
Treated right eyes, Day 32, 10 mg/g (Group B)
  Intraocular Pressure, MEAN: 23.9 mmHg
Treated right eyes, Pre-Study, 1 mg/g (Group D)
  Intraocular Pressure, MEAN: 24.4 mmHg
Treated right eyes, Pre-Study, 5 mg/g (Group C)
  Intraocular Pressure, MEAN: 24.8 mmHg
Treated right eyes, Pre-Study, 10 mg/g (Group B)
  Intraocular Pressure, MEAN: 24.0 mmHg
Untreated left eyes, Day 3, 1 mg/g (Group D)
  Intraocular Pressure, MEAN: 23.5 mmHg
Untreated left eyes, Day 3, 5 mg/g (Group C)
  Intraocular Pressure, MEAN: 23.8 mmHg
Untreated left eyes, Day 3, 10 mg/g (Group B)
  Intraocular Pressure, MEAN: 23.3 mmHg
Untreated left eyes, Day 5, 1 mg/g (Group D)
  Intraocular Pressure, MEAN: 24.4 mmHg
Untreated left eyes, Day 5, 5 mg/g (Group C)
  Intraocular Pressure, MEAN: 24.4 mmHg
Untreated left eyes, Day 5, 10 mg/g (Group B)
  Intraocular Pressure, MEAN: 23.4 mmHg
Untreated left eyes, Day 10, 1 mg/g (Group D)
  Intraocular Pressure, MEAN: 24.5 mmHg
Untreated left eyes, Day 10, 5 mg/g (Group C)
  Intraocular Pressure, MEAN: 24.6 mmHg
Untreated left eyes, Day 10, 10 mg/g (Group B)
  Intraocular Pressure, MEAN: 24.0 mmHg
Untreated left eyes, Day 12, 1 mg/g (Group D)
  Intraocular Pressure, MEAN: 22.2 mmHg
Untreated left eyes, Day 12, 5 mg/g (Group C)
  Intraocular Pressure, MEAN: 23.8 mmHg
Untreated left eyes, Day 12, 10 mg/g (Group B)
  Intraocular Pressure, MEAN: 23.8 mmHg
Untreated left eyes, Day 16, 1 mg/g (Group D)
  Intraocular Pressure, MEAN: 21.6 mmHg
